Experimental data published in ChEMBL document CHEMBL3046347, “Synthesis and biological evaluation of novel curcumin analogues as anti-inflammatory, anti-cancer and anti-oxidant agents” (Med Chem Res, 2012).

Columns and labels:
HCT-116 [1] = assay: Cytotoxicity against Homo sapiens (human) HCT116 cells at 700 nM after 48 hr by propidium iodide-based fluorometric assay; type: functional; details: HCT-116, 48 h, read-out: GI
PANC-1 [2] = assay: Cytotoxicity against Homo sapiens (human) PANC1 cells at 700 nM after 48 hr by propidium iodide-based fluorometric assay; type: functional; details: PANC-1, 48 h, read-out: GI
ACHN [3] = assay: Cytotoxicity against Homo sapiens (human) ACHN cells at 700 nM after 48 hr by propidium iodide-based fluorometric assay; type: functional; details: read-out: GI
[4] = Cytotoxicity against Homo sapiens (human) H460 cells at 700 nM after 48 hr by propidium iodide-based fluorometric assay; type: functional; details: NCI-H460, 48 h, read-out: GI
Calu-1 [5] = assay: Cytotoxicity against Homo sapiens (human) Calu1 cells at 700 nM after 48 hr by propidium iodide-based fluorometric assay; type: functional; details: Calu-1, 48 h, read-out: GI
[6] = Antioxidant activity assessed as reduction of potassium ferricynide at 1 mM after 10 min by spectrophotometric analysis; type: functional; design: scale not given: the % may be the effect or the level left
[7] = Antioxidant activity assessed as hydroxyl radical scavenging activity at 1 mM by spectrophotometric analysis; type: functional
[8] = Cytotoxicity against Homo sapiens (human) […] cells at 1 uM; type: cell-based
THP-1 [9] = assay: Anti-inflammatory activity in Homo sapiens (human) THP1 cells assessed as inhibition of LPS-induced IL6 production at 1 uM incubated for 30 min prior to LPS-challenge measured after 24 hr by ELISA; type: functional
THP-1 [10] = assay: Anti-inflammatory activity in Homo sapiens (human) THP1 cells assessed as inhibition of LPS-induced TNFalpha production at 1 uM incubated for 30 min prior to LPS-challenge measured after 24 hr by ELISA; type: functional
HCT-116 [11] = assay: Cytotoxicity against Homo sapiens (human) HCT116 cells at 500 nM after 48 hr by propidium iodide-based fluorometric assay; type: functional; details: HCT-116, 48 h, read-out: GI
ACHN [12] = assay: Cytotoxicity against Homo sapiens (human) ACHN cells at 500 nM after 48 hr by propidium iodide-based fluorometric assay; type: functional; details: read-out: GI
PANC-1 [13] = assay: Cytotoxicity against Homo sapiens (human) PANC1 cells at 500 nM after 48 hr by propidium iodide-based fluorometric assay; type: functional; details: PANC-1, 48 h, read-out: GI
Calu-1 [14] = assay: Cytotoxicity against Homo sapiens (human) Calu1 cells at 500 nM after 48 hr by propidium iodide-based fluorometric assay; type: functional; details: Calu-1, 48 h, read-out: GI
[15] = Cytotoxicity against Homo sapiens (human) H460 cells at 500 nM after 48 hr by propidium iodide-based fluorometric assay; type: functional; details: NCI-H460, 48 h, read-out: GI
THP-1 [16] = assay: Anti-inflammatory activity in Homo sapiens (human) THP1 cells assessed as inhibition of LPS-induced IL6 production at 10 uM incubated for 30 min prior to LPS-challenge measured after 24 hr by ELISA; type: functional
[17] = Antioxidant activity assessed as reduction of potassium ferricynide at 1 uM after 10 min by spectrophotometric analysis; type: functional; design: scale not given: the % may be the effect or the level left
THP-1 [18] = assay: Anti-inflammatory activity in Homo sapiens (human) THP1 cells assessed as inhibition of LPS-induced TNFalpha production at 10 uM incubated for 30 min prior to LPS-challenge measured after 24 hr by ELISA; type: functional
[19] = molecular target: T1, Beta-glucuronidase (Homo sapiens) (UniProt P08236); assay: Inhibition of beta-glucuronidase (unknown origin) using p-nitrophenyl-beta-D-glucopyranosiduronic acid as substrate at 1 uM after 30 min by spectrophotometric analysis
T1 sequence (whole entry): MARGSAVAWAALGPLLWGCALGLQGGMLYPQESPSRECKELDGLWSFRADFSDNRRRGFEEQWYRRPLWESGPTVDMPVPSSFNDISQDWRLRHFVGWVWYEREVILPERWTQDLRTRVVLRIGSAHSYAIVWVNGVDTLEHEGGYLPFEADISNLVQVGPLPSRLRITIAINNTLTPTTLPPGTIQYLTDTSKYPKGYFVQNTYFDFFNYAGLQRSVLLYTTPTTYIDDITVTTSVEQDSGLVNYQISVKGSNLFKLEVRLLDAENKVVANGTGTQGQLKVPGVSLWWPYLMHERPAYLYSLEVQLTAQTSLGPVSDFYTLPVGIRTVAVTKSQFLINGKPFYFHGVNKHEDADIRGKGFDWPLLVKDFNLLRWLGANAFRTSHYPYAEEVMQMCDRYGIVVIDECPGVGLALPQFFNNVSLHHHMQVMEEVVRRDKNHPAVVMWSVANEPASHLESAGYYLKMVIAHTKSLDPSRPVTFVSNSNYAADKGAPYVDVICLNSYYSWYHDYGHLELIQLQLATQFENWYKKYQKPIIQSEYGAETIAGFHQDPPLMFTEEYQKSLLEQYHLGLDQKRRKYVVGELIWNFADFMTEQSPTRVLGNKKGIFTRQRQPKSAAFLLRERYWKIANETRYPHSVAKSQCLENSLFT

[20] = molecular target: T2, Prostaglandin G/H synthase 2 (Ovis aries) (UniProt P79208); assay: Inhibition of Ovis aries (sheep) COX2 at 1 uM after 5 min by colorimetric analysis
T2 sequence (whole entry): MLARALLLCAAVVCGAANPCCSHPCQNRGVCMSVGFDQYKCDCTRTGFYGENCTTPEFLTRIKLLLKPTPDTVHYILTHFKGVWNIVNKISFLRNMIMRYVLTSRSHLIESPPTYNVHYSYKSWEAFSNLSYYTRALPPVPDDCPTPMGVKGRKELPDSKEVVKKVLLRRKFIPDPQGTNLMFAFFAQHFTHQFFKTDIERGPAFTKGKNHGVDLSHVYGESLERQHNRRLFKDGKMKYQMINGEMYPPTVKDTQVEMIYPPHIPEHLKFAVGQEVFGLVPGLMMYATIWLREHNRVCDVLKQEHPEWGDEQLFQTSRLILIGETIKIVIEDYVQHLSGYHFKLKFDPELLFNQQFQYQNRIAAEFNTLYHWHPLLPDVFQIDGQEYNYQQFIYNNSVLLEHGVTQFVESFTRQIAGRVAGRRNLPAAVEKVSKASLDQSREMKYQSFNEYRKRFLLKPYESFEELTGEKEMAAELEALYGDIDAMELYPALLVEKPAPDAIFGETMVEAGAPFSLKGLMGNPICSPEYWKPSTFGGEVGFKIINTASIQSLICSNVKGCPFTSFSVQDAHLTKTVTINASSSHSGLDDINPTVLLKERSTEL

[21] = system: Radical scavenging activity; assay: Antioxidant activity assessed as DPPH radical scavenging activity at 1 uM after 20 min by spectrophotometric analysis; type: functional
ACHN [22] = assay: Cytotoxicity against Homo sapiens (human) ACHN cells at 10 uM after 48 hr by propidium iodide-based fluorometric assay; type: functional; details: read-out: GI
[23] = Antioxidant activity assessed as hydroxyl radical scavenging activity at 1 uM by spectrophotometric analysis; type: functional
[24] = Cytotoxicity against Homo sapiens (human) […] cells at 10 uM; type: cell-based
[25] = molecular target: T3, Prostaglandin G/H synthase 1 (Ovis aries) (UniProt P05979); details: at 1 µM;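 note: colorimetric read-out, measured after 5 min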
T3 sequence (whole entry): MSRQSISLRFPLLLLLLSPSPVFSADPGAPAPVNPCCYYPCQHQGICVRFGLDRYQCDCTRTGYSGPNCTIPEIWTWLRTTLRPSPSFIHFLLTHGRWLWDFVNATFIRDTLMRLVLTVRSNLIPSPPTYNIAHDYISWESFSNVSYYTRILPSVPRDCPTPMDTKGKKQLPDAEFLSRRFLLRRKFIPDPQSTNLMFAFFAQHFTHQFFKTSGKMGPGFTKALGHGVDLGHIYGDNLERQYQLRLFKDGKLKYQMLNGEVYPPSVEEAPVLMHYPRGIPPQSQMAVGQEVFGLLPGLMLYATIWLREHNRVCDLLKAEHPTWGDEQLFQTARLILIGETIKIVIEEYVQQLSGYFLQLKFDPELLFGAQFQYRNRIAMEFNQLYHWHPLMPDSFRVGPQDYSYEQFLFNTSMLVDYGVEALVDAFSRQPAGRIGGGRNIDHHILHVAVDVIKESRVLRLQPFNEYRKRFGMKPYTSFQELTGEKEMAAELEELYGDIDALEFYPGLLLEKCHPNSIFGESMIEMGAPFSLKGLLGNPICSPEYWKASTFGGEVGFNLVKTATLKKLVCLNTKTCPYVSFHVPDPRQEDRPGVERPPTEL
Description: Inhibition of Ovis aries (sheep) COX1 at 1 uM after 5 min by colorimetric analysis

[26] = Cytotoxicity against Homo sapiens (human) H460 cells at 10 uM after 48 hr by propidium iodide-based fluorometric assay; type: functional; details: NCI-H460, 48 h, read-out: GI
Trypsin (Homo sapiens) = Trypsin (Homo sapiens) (UniProt P07477+P07478+P35030); assay: Inhibition of trypsin (unknown origin) using bovine serum albumin as substrate at 1 uM incubated for 20 min prior to substrate addition measured after 25 min by Lowry method; type: protein assay
Calu-1 [27] = assay: Cytotoxicity against Homo sapiens (human) Calu1 cells at 10 uM after 48 hr by propidium iodide-based fluorometric assay; type: functional; details: Calu-1, 48 h, read-out: GI
PANC-1 [28] = assay: Cytotoxicity against Homo sapiens (human) PANC1 cells at 10 uM after 48 hr by propidium iodide-based fluorometric assay; type: functional; details: PANC-1, 48 h, read-out: GI
HCT-116 [29] = assay: Cytotoxicity against Homo sapiens (human) HCT116 cells at 10 uM after 48 hr by propidium iodide-based fluorometric assay; type: functional; details: HCT-116, 48 h, read-out: GI

inhibition [19] [%]	inhibition [20] [%]	inhibition [25] [%]	inhibition (Trypsin (Homo sapiens)) [%]	Structure (SMILES)	inhibition at 10 µM (THP-1 [16]) [%]	Activity [17] [%]	inhibition at 10 µM (THP-1 [18]) [%]	Activity [21] [%]	inhibition of growth at 10 µM (ACHN [22]) [%]	Activity [23] [%]	Activity [24] [%]	inhibition of growth at 10 µM [26] [%]	inhibition of growth at 10 µM (Calu-1 [27]) [%]	inhibition of growth at 10 µM (PANC-1 [28]) [%]	inhibition of growth at 10 µM (HCT-116 [29]) [%]	also measured
–	–	–	–	CN1CC[C@H](c2c(O)cc(O)c3c(=O)cc(-c4ccccc4Cl)oc23)[C@H](O)C1 [ALVOCIDIB]	–	–	–	–	–	–	–	–	–	–	–	inhibition of growth at 0.7 µM (HCT-116 [1]): 83%; inhibition of growth at 0.7 µM (PANC-1 [2]): 68%; inhibition of growth at 0.7 µM (ACHN [3]): 73%; inhibition of growth at 0.7 µM [4]: 73%; inhibition of growth at 0.7 µM (Calu-1 [5]): 82%
–	–	–	–	O=C1O[C@H]([C@@H](O)CO)C(O)=C1O	–	–	–	–	–	–	–	–	–	–	–	Activity [6]: 78.9%; Activity [7]: 45.9%
–	–	–	–	C[C@@H]1C[C@H]2[C@@H]3CCC4=CC(=O)C=C[C@]4(C)[C@@]3(F)[C@@H](O)C[C@]2(C)[C@@]1(O)C(=O)CO [DEXAMETHASONE]	–	–	–	–	–	–	–	–	–	–	–	Activity [8]: 0%; inhibition at 1 µM (THP-1 [9]): 94%; inhibition at 1 µM (THP-1 [10]): 72%
–	–	–	–	Nc1ccn([C@@H]2O[C@H](CO)[C@@H](O)C2(F)F)c(=O)n1 [GEMCITABINE]	–	–	–	–	–	–	–	–	–	–	–	inhibition of growth at 0.5 µM (HCT-116 [11]): 86%; inhibition of growth at 0.5 µM (ACHN [12]): 84%; inhibition of growth at 0.5 µM (PANC-1 [13]): 78%; inhibition of growth at 0.5 µM (Calu-1 [14]): 87%; inhibition of growth at 0.5 µM [15]: 79%
66.9	48.2	24.2	51.6	COc1cc(OC)c(/C=C/C(=O)c2cccc(NC(=O)c3cccc(C)c3)c2)c(OC)c1Br	97	29.2	87	36.7	28	38.3	56	32	22	23	30	–
29.7	43.7	31.5	35.5	COc1cc(OC)c(/C=C/C(=O)c2cccc(NC(=O)c3ccccc3C)c2)c(OC)c1Br	95	22.3	72	31.1	15	34.6	54	32	0	3	21	–
74.2	79.3	44.8	64.8	COc1cc(OC)c(/C=C/C(=O)c2cccc(NC(=O)c3ccccc3F)c2)c(OC)c1Br	96	40.5	84	42.9	66	43.2	56	52	67	68	66	–
